Measurements taken from patent US20110124787A1, “RUBBER COMPOSITION” (BRIDGESTONE CORPORATION, priority 2008, published 2011).

Row | melting point | Structure (SMILES)
1 | 60 to 61 °C | CCN(Sc1nc2ccccc2s1)C(C)(C)C [N-ethyl-N-t-butylbenzothiazole-2-sulfenamide]
2 | 56 to 58 °C | CN(Sc1nc2ccccc2s1)C(C)(C)C [N-methyl-N-t-butylbenzothiazole-2-sulfenamide]
3 | 55 to 56 °C | CCCCN(Sc1nc2ccccc2s1)C(C)(C)C [N-n-butyl-N-t-butylbenzothiazole-2-sulfenamide]
